Experimental data from patent US6599499B1, “Uses of diterpenoid triepoxides as an anti-proliferative agent” (priority 1999, dated 2003).

How the values were obtained:
[1] = system: HT-29 human colon cancer cell line tumors; assay: Nude mouse xenograft, established HT-29 colon cancer tumors; type: in vivo, nude mice
Description: HT-29 tumor cells grown in tissue culture were harvested and implanted intradermally on the backs of nude mice. Tumor size was monitored by measuring the dimensions of each tumor and calculating tumor volume with a formula. […] PG490-88 treatment at 0.25 mg/kg was administered daily i.p. 5 days per week for 2 weeks. Navelbine at 10 mg/kg was given i.v. on days 0 and 7. Mice in the combination treatment group received PG490-88 i.p. and Navelbine i.v. at the appropriate times. The treatments were given to mice at 100 μl per 10 g of mouse body weight. Tumor dimensions were measured periodically for calculation of tumor volumes. […] The data are presented as mean percent change in tumor volume from day 0 for each treatment group. Toxicity of the treatment was monitored by weighing the mice daily 5 days per week. In FIG. 8, a comparison is provided for tumor volumes on Days 0 and 14. Tumor dimensions were measured periodically for calculation of tumor volumes, and the final determinations were made on day 14.

HT1080 tumor cells = assay: Nude mouse xenograft, established HT1080 tumors; type: in vivo, nude mice; conditions: PG490-88 0.75 mg/kg IP days 0-5 and 7-11, CPT-11 11 mg/kg IV days 1, 5, 9
Description: Mice. […] Nude mouse xenograft model. HT1080 tumor cells were grown in tissue culture flasks and harvested using EDTA and trypsin. Cells were centrifuged and the concentration of viable cells was appropriately adjusted. […] Tumor size was monitored after tumor cell implantation by measuring the width, length and thickness of the tumors and using a formula to calculate the volume. […] Control mice were left untreated. […] Combination therapy mice received both PG490-88 and CPT-11 treatments.

HT1080 cells = assay: Apoptosis by Annexin V and Propidium Iodide staining, HT1080 cells; type: cell-based, human; parameters: unit of the concentration uncertain; conditions: HT1080, 20 h, PG490 pretreatment 4 h then CPT-11 16 h
Description: HT1080 cells were treated as shown and harvested for analysis of apoptosis by Annexin V and Propidium Iodide staining 20 h after treatment. In experiments with a combination of PG490 and CPT-11, cells were pretreated with PG490 for 4 h followed by the addition of CPT-11 for 16 h.

H23 human tumor cells = conditions: day 14; PG490-88 0.25 mg/kg/day; taxol 10 mg/kg/day; IP
Description: Cell death reagents and assays. Cell viability was measured by an MTT assay as recently described (Lee et al. (1999) J. Biol. Chem. 274:13451-13455. z-VAD-fluoromethylketone (z-VAD.fmk) was obtained from Alexis Biochemicals, San Diego, Calif. The effect of z-VAD.fmk on cell viability was analyzed by annexin and propidium iodide staining followed by FACS analysis according to the manufacturer's protocol (Clontech Laboratories, Palo Alto, Calif.). The analysis of apoptosis in histologic sections was done by terminal deoxynucleotidyl transferase (TdT)-mediated d-UTP nick end labeling (TUNEL) of slides from paraffin sections of day 3 tumors harvested from the mice 24 h after the second of two daily treatments with PG490-88 or saline. TUNEL staining was done according to the manufacturer's protocol (Boehringer Mannheim, Indianapolis, Ind.) and then the histology slides were counterstained with methyl green. DNA was isolated from cells for analysis of internucleosomal DNA laddering followed by agarose gel electrophoresis and ethidium bromide staining.
Nude mouse xenograft model. Female NCr nude mice were purchased from Taconic, Germantown, N.Y., and were generally 20-24 grams when used. Mice were kept in autoclaved filter-top microisolator cages with autoclaved water and sterile food ad lib. The cages were maintained in an isolator unit providing filtered air (Lab Products, Inc., Maywood, N.J.). Tumor cells were grown and harvested as described above. NCr nude mice were injected intradermally with 5×10^6 tumor cells. In some experiments, treatment was initiated on the day of tumor cell implantation. […] Mice were treated IP daily for 5 days per week.
H23 tumor cells were implanted intradermally in nude mice. When the tumors reached approximately 100 mm^3, daily IP treatment with PG490-88 was initiated. […] The data in FIG. 3 represents the measurement of H23 tumor volume on day 14 after the initiation of treatment. Nude mice bearing xenografts of H23 human tumor cells were treated daily as shown. The data represent the means and the standard errors of the means of the tumor volumes as percent of the day 0 tumor volumes for each animal measured day 3, 6, 10 and 14 days after the initiation of treatment. There were 5 mice per group.

Dx5 cells = conditions: cited from earlier work

CCC1=C[C@@H]2CN(C1)Cc1c([nH]c3ccccc13)[C@@](C(=O)OC)(c1cc3c(cc1OC)N(C)[C@H]1[C@@](O)(C(=O)OC)[C@H](OC(C)=O)[C@]4(CC)C=CCN5CC[C@]31[C@@H]54)C2 [Navelbine, vinorelbine, reference compound]
increase in tumor volume from day 0 by day 14 ([1]; PG490-88 0.25 mg/kg i.p. 5 days per week for 2 weeks, Navelbine 10 mg/kg i.v. days 0 and 7): 343% | Day 0 Tumor Volume (mm^3) Mean ([1]; baseline at grouping, before treatment): 109 mm^3

CCc1c2c(nc3ccc(OC(=O)N4CCC(N5CCCCC5)CC4)cc13)-c1cc3c(c(=O)n1C2)COC(=O)[C@]3(O)CC [CPT-11, irinotecan, reference compound]
TV Mean Day 4 (HT1080 tumor cells): 157 | TV Mean Day 7 (HT1080 tumor cells): 209 | TV Mean Day 10 (HT1080 tumor cells): 268 | TV Mean Day 14 (HT1080 tumor cells): 495 | TV Mean Day 0 (HT1080 tumor cells; baseline): 107 | Apoptotic Cells (%) (HT1080 cells; CPT-11 (10 µM) alone, (10 μM) in combination with PG490 5 ng/ml): 5% | Apoptotic Cells (%) (HT1080 cells; PG490 5 ng/ml, CPT-11 (5 µM) alone, (5 μM) in combination): 0%

CC(=O)O[C@H]1C(=O)[C@@]2(C)[C@H]([C@H](OC(=O)c3ccccc3)[C@]3(O)C[C@H](OC(=O)[C@H](O)[C@@H](NC(=O)c4ccccc4)c4ccccc4)C(C)=C1C3(C)C)[C@]1(OC(C)=O)CO[C@@H]1C[C@@H]2O [taxol, reference compound]
tumor volume as % of the vehicle control (H23 human tumor cells): 42% | fold more resistant than the MES-SA parent cell line (Dx5 cells): 1000 fold
